What was measured:
[1] = tested on: Human immunodeficiency virus; assay: Antiviral activity against HIV BaL in PM1 cell; format: functional; settings: Human immunodeficiency virus 1, BaL
[2] = target: T1, hERG (KCNH2) (Homo sapiens, UniProt Q12809); assay: Inhibition of [3H]dofetilide binding to HERG expressed in HEK293 cells at 300 nM; format: cell-based; settings: HEK293 cells that express hERG, probe [3H]dofetilide
[3] = Distribution coefficient, log D of the compound; format: physicochemical; settings: octanol/water
[4] = target: T1, hERG (KCNH2); assay: Inhibition of [3H]dofetilide binding to HERG expressed in HEK293 cells at 100 nM; format: cell-based; settings: HEK293 cells that express hERG, probe [3H]dofetilide
[5] = Dissociation constant, pKa of the compound; format: physicochemical
[6] = target: C-C chemokine receptor type 5 (Homo sapiens, UniProt P51681); assay: Inhibition of [125I]MIP-1beta binding to CCR5 expressed in HEK293 cells; format: cell-based
Sequence of C-C chemokine receptor type 5 (P51681 whole entry): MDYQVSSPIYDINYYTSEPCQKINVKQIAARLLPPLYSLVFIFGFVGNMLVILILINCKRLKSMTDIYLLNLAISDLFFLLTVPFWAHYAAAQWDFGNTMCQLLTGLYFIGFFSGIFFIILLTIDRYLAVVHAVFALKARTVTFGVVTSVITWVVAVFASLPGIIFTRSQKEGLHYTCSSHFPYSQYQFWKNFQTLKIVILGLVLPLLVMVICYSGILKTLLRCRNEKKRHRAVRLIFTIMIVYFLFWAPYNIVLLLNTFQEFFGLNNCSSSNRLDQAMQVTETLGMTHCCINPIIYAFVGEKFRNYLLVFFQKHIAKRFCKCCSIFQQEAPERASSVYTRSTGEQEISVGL

[7] = target: Voltage-gated inwardly rectifying potassium channel KCNH2 (Homo sapiens, UniProt Q12809); assay: Inhibition of [3H]dofetilide binding to HERG expressed in HEK293 cells; format: cell-based
Sequence of Voltage-gated inwardly rectifying potassium channel KCNH2 (Q12809 whole entry): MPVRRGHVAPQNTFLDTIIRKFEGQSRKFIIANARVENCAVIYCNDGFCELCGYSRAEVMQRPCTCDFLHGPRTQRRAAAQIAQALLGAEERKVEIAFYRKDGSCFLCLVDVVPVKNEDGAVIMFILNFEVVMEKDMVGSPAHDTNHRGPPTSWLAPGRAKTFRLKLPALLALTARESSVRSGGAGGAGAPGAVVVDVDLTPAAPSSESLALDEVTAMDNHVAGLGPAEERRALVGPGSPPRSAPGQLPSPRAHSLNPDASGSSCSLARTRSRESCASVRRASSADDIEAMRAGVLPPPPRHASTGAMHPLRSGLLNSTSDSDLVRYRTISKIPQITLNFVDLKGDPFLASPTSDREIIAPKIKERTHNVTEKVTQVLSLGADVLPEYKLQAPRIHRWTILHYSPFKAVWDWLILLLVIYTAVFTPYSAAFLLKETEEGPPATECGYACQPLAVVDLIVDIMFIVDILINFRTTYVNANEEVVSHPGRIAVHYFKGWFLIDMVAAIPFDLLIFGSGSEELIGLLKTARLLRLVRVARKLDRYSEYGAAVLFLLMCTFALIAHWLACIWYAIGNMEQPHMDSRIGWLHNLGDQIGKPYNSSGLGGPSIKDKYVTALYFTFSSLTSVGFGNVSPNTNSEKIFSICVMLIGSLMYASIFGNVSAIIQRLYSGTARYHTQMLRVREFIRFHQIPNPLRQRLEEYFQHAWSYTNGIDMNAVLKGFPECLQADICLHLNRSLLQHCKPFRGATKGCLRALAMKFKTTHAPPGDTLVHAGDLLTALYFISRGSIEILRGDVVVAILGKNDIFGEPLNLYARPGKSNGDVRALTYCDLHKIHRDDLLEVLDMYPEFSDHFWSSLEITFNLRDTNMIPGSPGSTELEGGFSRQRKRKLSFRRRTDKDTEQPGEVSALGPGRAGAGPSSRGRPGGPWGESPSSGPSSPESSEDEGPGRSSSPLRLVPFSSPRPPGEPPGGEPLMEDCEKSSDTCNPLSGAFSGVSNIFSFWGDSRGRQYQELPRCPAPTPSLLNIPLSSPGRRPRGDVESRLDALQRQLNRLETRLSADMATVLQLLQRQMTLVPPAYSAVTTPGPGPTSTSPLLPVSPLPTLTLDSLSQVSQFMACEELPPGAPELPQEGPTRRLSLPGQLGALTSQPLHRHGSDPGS

T1 sequence (Q12809 whole entry): as above

SMILES | IC50 [6] [µM] | IC90 [1] [µM] | inhibition at 0.3 µM [2] [%] | other results
Cc1nnc(C(C)C)n1C1CC2CCC(C1)N2CC[C@H](NC(=O)CCC(F)(F)F)c1ccccc1 (stereo partly drawn) | – | 0.014 | 14 | logD [3]: 1.8
Cc1nnc(C(C)C)n1C1CC2CCC(C1)N2CC[C@H](NC(=O)C1CCC1)c1ccccc1 (stereo partly drawn) | – | 0.008 | 30 | inhibition at 0.1 µM [4]: 14%; logD [3]: 1.6
Cc1nnc(C(C)C)n1[C@@H]1C[C@H]2CC[C@@H](C1)N2CC[C@H](NC(=O)C1CCC(F)(F)CC1)c1ccccc1 [MARAVIROC] | – | – | – | logD [3]: 2.1
Cc1nnc(C(C)C)n1C1CC2CCC(C1)N2CC[C@H](NC(=O)C1CCCC1)c1ccccc1 (stereo partly drawn) | – | 0.002 | 18 | logD [3]: 2.1
Cc1nc2ccccc2n1C1CC2COCC(C1)N2CC[C@H](NC(=O)C1CCC1)c1ccccc1 (stereo partly drawn) [OXOGRANATANE] | 0.039 | – | 70 | pKa [5]: 6
Cc1nnc(C)n1C1CC2CCC(C1)N2CC[C@H](NC(=O)C1CCC1)c1ccccc1 (stereo partly drawn) | – | 0.013 | – | inhibition at 0.1 µM [4]: 10%
O=C(N[C@@H](CCN1CCC(n2cnc(Cc3ccccc3)n2)CC1)c1ccccc1)C1CCC1 | 0.005 | – | – | –
CC(=O)N(CCOc1ccc(NS(C)(=O)=O)cc1)CCc1ccc(NS(C)(=O)=O)cc1 | – | – | – | Activity [7]: 0.021 µM
O=C(Cc1ccc(F)cc1)NC1CCN(CC[C@H](NC(=O)C2CCC2)c2ccccc2)CC1 | 0.0007 | – | – | –
Cc1nc2ccccc2n1C1CC2CCC(C1)N2CC[C@H](NC(=O)C1CCC1)c1ccccc1 (stereo partly drawn) | – | – | 80 | pKa [5]: 7.8
Cc1nnc(C(C)C)n1[C@H]1C[C@H]2CC[C@@H](C1)N2CC[C@H](NC(=O)C1CCC(F)(F)CC1)c1ccccc1 [MARAVIROC] | – | 0.002 | – | –
O=C(N[C@@H](CCN1CCC(c2noc(Cc3ccccc3)n2)CC1)c1ccccc1)C1CCC1 | 0.02 | – | – | inhibition at 0.1 µM [4]: 50%

Now from value to molecule, other results behind:

IC50 [6] [µM] | SMILES | IC90 [1] [µM] | inhibition at 0.3 µM [2] [%] | other results
0.25 | Cc1nnc(Cc2ccccc2)n1C1CCN(CC[C@H](NC(=O)C2CCC2)c2ccccc2)CC1 | – | – | –
0.07 | Cc1nc(C2CCN(CC[C@H](NC(=O)C3CCC3)c3ccccc3)CC2)no1 | – | – | –
0.05 | Cc1nnc(C)n1C1CCN(CC[C@H](NC(=O)C2CCC2)c2ccccc2)CC1 | – | – | inhibition at 0.1 µM [4]: 5%

Reference: ChEMBL document CHEMBL1148680 (Bioorg Med Chem Lett, 2006)
